Assay results taken from patent US10350189B2, “Method for transnasal delivery of blood-brain barrier permeation agent and therapeutic agent” (priority 2015, dated 2019).
“Also recorded” adds a separate entry of the source.

How the values were obtained:
Male Sprague-Dawley rats [1] = assay: Heart rate after intranasal application to the SPG; assay type: in vivo, rat
Protocol: (§1) Male Sprague-Dawley rats (Harlan, Indianapolis, Ind.) weighing 300-350 g were allowed to acclimate for at least 4 days prior to experimentation. Rats were housed 2 per cage in a room with controlled light (6:00 a.m. to 6:00 p.m.), humidity (50±10%) and temperature (23±1° C.). Animal care and use for experimental procedures was approved by and in accordance with the guidelines of the Midwestern University Institutional Animal Care and Use Committee (IACUC).
(§2) All drugs/solutions were freshly prepared on the day of administration using sterile saline (0.9% NaCl, Hospira, Inc., Lake Forest, Ill.). Urethane (ethyl carbamate, Sigma-Aldrich, St. Louis, Mo.) was administered intraperitoneally (IP) at a dose of 1.5 g/kg. […] Evans blue (5 mL/kg) was administered intravenously (IV) via left femoral vein cannula.
(§3) Two studies were designed for this project, using a total of 42 rats.
(§4) Rats were anesthetized with urethane (1.5 g/kg, IP) and immobilized on a surgical board equipped with a controlled heating pad. Core temperature, measured via rectal probe, was maintained at 37±1° C. In order to maintain blood pO2, pCO2 and pH, and to avoid the effect of respiration on blood pressure (BP) and heart rate (HR), animals were kept on artificial respiration via an endotracheal cannula connected to a rodent ventilator (Model 683, Harvard Apparatus, Inc., Holliston, Mass.). […]

Male Sprague-Dawley rats [2] = assay: Mean arterial pressure after intranasal application to the SPG; assay type: in vivo, rat
Protocol: as §1, §2, §3, §4

[3] = test system: BBB of the rat test subjects; assay: BBB permeability by Evans Blue concentration in brain after intranasal topical application to the SPG; assay type: in vivo
Excerpt: Data are presented as mean±SEM. […] A P value of less than 0.05 was considered significant.

[4] = cited from earlier work
Male Sprague-Dawley rats [5] = assay: Cerebral blood flow by Laser Speckle Contrast Analysis after intranasal application to the SPG; assay type: in vivo, rat; conditions: rivastigmine-treated (1 and 2 mg/kg) vs saline
Protocol: as §3
Animals anesthetized with urethane were secured into a stereotactic apparatus (David Kopf Instruments, Tujunga, Calif.) and a midline incision was made on their scalp. The skull was slowly thinned using a dremel, working in 30 second periods to minimize heat caused by friction. Cerebral blood flow was measured using Laser Speckle Contrast Analysis (LASCA) technology with a PeriCam PSI HR system (Perimed, Inc., Ardmore, Pa.), captured in real time and analyzed using PIMSoft software (Perimed).
GraphPad Instat 2.00 was used to conduct a power analysis. […] Data are presented as mean±SEM. The significance of differences for mean arterial pressure, heart rate and cerebral blood flow was estimated by 2-way analysis of variance followed by Tukey's post hoc test. One-way analysis of variance followed by Tukey's post hoc test was used to estimate significance for BBB permeability. A P value of less than 0.05 was considered significant. The statistical analysis was processed with GraphPad Prism 6.05 (GraphPad, San Diego, Calif.).

[6] = 1, 2 or 4 mg/kg to the SPG via intranasal cannula

CCN(C)C(=O)Oc1cccc([C@H](C)N(C)C)c1 [rivastigmine]
heart rate (Male Sprague-Dawley rats [1]; [6]): did not significantly vary | mean arterial pressure (Male Sprague-Dawley rats [2]; [6]): did not significantly alter | BBB permeability, in words ([3]; 1 mg/kg compared with saline, 2 and 4 mg/kg): significantly higher than saline; also recorded: greatest permeabilization | BBB permeability, in words ([3]; Study I, 2 mg/kg rivastigmine compared with 0.4 mg/kg neostigmine): slightly increased permeability of the BBB over neostigmine | BBB permeability, in words (Evans Blue dye in the CNS) ([3]; topical administration to the SPG, overall conclusion): increase in BBB permeability | solubility in water [4]: about 2.04 mg/mL | cerebral blood flow (Male Sprague-Dawley rats [5]): No significant differences

CNC(=O)Oc1ccc2c(c1)[C@]1(C)CCN(C)[C@@H]1N2C [physostigmine]
solubility in water [4]: about 7.76 mg/mL

COc1ccc2c3c1O[C@H]1C[C@@H](O)C=C[C@@]31CCN(C)C2 [galantamine]
solubility in water [4]: about 10 mg/mL

CN(C)C(=O)Oc1cccc([N+](C)(C)C)c1 [neostigmine]
heart rate (Male Sprague-Dawley rats [1]; 0.4 mg/kg, over time): slight decrease in heart rate | mean arterial pressure (Male Sprague-Dawley rats [2]; 0.4 mg/kg, at 15 and 30 min postadministration): slight decrease in mean arterial pressure

C/C=C1\[C@H]2C=C(C)C[C@]1(N)c1ccc(=O)[nH]c1C2 [huperzine]
solubility in water [4]: about 0.188 mg/mL
